Several values for one entry are separate records, joined by “and”; a condition that tells them apart may be missing. Equal entries are not always repeated.

From paper PMC10122656, “Siglec-6 mediates the uptake of extracellular vesicles through a noncanonical glycolipid binding pocket” (Nature Communications, 2023) come the findings set out here.

Common to all, as to assay: Cell assay (liposome/EV binding, flow cytometry)
Holding throughout (assay type): cell-based

One assay concerns the target T1, R122A Siglec-6 CHO cells (Homo sapiens, UniProt O43699, R122A).
T1 construct: expressed in transfected cells
The settings on record: replicates; for log10(MFI AF647) of GLL relative to log10(MFI AF647) of the same GLL against UT CHO cells (Fig. 2a): Sig-6 R122A, 3 mol% ganglioside liposomes. A digest of the protocol: (§1)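 Liposomes of DSPC, cholesterol and PEG45–DSPE carrying AF647–PEG45–DSPE and Siglec ligand–PEG45–DSPE were extruded through 800 then 100 nm filters (130 ± 35 nm). CHO cells were incubated with 50 µM liposome or 50 µg/mL (protein) EVs in DMEM F12 5% FBS for 30 min at 37 °C, then anti-Siglec stained on ice; binding read on Siglec-positive gated cells by flow cytometry.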

Assay [1] deals with T2, Siglec-15 R143A CHO cells (Homo sapiens, UniProt Q6ZMC9, K274L/R143A).
T2 construct: expressed in transfected cells
T2 sequence (Q6ZMC9 20-328 R143A/K274L): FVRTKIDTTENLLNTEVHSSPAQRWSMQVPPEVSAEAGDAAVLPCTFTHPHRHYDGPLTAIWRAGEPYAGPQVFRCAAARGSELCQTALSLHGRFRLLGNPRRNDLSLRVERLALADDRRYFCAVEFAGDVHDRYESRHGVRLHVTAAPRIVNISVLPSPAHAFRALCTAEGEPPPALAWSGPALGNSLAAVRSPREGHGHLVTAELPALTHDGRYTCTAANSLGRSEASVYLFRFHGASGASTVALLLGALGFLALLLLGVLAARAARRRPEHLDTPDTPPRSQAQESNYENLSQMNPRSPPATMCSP
The settings on record: Sig-15 R143A; 3 mol% ganglioside liposomes; replicates. The method, boiled down:
(§2)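 Binding of AF647-labelled, Siglec ligand-bearing liposomes (130 ± 35 nm) or EVs was measured on transfected CHO cells. Exposure was 50 µM or 50 µg/mL for 30 min at 37 °C; Siglec-positive cells were gated for analysis.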

In another assay the target is T3, Siglec-10 WT CHO cells (Homo sapiens, UniProt Q96LC7).
T3 construct: expressed in transfected cells
T3 sequence (Q96LC7 17-697): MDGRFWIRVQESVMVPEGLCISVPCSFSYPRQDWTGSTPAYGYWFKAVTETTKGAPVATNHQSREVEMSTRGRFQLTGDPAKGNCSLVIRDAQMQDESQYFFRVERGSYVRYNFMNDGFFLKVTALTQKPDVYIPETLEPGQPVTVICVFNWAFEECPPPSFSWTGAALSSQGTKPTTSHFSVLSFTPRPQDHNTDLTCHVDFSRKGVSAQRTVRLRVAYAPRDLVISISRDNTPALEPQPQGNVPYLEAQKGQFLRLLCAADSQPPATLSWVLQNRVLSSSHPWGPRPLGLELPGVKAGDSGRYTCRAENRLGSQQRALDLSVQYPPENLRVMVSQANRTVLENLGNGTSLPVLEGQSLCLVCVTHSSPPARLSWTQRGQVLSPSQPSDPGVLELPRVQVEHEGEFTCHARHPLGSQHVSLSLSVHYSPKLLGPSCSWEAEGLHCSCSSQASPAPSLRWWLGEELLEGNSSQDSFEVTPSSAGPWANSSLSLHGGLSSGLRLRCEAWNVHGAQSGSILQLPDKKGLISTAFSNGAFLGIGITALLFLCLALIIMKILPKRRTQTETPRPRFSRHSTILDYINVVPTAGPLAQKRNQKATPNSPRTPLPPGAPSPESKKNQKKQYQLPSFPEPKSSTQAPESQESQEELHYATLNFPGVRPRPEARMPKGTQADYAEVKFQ
To be noted: for log10(MFI AF647) of GLL relative to log10(MFI AF647) of the same GLL against UT CHO cells (Fig. 2a): Sig-10 WT, 3 mol% ganglioside liposomes, replicates; for GLL binding to Siglec-10 (in words): cell assay, optimized liposomal formulation. The method, boiled down: as §1

The target of a further assay is T4, Siglec-1 R116A CHO cells (Homo sapiens, UniProt Q9BZZ2, R116A).
T4 construct: expressed in transfected cells
T4 sequence (Q9BZZ2 20-1709 R116A): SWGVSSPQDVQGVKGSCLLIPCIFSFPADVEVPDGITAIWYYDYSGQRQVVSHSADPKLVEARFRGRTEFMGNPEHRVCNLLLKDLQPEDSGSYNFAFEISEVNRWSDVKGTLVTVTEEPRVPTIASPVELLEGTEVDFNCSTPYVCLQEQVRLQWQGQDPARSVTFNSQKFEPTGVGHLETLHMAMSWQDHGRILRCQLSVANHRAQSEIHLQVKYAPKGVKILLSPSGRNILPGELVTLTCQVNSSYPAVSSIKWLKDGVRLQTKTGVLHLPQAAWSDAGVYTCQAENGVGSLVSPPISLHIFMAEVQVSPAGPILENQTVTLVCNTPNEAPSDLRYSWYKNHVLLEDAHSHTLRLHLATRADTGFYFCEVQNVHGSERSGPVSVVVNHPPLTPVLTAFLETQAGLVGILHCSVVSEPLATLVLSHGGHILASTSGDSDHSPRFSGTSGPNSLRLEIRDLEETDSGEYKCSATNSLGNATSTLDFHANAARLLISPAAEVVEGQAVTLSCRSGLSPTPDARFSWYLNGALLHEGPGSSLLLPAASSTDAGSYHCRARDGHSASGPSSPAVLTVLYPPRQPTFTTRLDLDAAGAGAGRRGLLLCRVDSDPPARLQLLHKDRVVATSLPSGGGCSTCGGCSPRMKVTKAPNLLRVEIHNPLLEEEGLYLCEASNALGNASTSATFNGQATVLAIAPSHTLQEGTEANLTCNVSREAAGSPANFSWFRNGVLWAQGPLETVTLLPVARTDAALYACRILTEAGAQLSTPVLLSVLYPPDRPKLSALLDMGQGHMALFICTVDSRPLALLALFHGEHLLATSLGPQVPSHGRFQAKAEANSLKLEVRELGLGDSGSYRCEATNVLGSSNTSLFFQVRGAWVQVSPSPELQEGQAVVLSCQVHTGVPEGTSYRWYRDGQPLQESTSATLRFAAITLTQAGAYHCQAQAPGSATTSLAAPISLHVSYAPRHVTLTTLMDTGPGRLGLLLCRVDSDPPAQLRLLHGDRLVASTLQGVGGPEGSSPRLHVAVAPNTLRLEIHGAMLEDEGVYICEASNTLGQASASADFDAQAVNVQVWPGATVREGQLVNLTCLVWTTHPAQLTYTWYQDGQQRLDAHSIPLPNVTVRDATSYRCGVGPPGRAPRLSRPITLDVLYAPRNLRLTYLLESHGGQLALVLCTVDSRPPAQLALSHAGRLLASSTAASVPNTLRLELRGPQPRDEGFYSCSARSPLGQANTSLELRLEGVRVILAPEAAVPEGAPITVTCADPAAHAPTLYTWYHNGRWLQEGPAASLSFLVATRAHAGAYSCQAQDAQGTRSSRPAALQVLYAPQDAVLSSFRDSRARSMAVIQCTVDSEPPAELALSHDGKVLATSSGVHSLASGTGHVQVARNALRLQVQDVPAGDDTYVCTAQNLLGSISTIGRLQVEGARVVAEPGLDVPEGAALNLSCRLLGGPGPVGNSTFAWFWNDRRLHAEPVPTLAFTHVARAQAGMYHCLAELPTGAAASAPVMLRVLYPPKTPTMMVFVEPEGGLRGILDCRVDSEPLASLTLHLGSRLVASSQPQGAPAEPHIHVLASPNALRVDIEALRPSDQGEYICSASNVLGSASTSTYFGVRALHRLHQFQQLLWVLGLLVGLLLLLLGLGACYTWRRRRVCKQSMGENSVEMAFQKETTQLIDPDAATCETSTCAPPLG
The settings on record: Sig-1 R116A; 3 mol% ganglioside liposomes; replicates. The method, boiled down:
as §1

The next assay concerns the target T5, CD33 WT CHO cells (Homo sapiens, UniProt P20138).
T5 construct: expressed in transfected cells
The settings on record: 3 mol% ganglioside liposomes, replicates. The method, boiled down:
as §2

T1 sequence (O43699 27-453 R122A): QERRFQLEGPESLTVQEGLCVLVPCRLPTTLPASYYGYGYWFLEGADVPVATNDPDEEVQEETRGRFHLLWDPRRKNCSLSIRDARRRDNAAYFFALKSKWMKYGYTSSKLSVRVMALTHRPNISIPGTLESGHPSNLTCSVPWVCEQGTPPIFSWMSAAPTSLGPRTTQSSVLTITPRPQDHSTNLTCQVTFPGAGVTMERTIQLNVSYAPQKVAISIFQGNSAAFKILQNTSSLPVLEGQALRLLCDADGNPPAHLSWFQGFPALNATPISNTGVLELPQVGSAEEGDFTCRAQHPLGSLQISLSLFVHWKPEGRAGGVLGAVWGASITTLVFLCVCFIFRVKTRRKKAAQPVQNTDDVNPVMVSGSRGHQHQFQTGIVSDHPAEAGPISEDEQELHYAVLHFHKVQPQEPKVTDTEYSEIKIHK
T5 sequence (P20138 18-364): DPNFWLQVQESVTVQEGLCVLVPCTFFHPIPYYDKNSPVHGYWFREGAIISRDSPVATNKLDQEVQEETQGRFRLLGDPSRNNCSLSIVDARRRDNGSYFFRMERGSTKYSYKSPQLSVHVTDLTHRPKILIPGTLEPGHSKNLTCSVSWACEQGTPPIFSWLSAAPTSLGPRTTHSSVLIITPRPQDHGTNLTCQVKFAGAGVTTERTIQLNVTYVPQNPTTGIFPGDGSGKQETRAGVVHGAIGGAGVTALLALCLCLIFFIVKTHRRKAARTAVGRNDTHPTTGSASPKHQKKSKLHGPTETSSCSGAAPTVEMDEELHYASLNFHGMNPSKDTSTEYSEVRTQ

As for `CCCCCCCCCCCCCCCCOCC(COCCCCCCCCCCCCCCCC)OCc1cn(CCO[C@@H]2O[C@H](CO)[C@@H](O[C@@H]3O[C@H](CO)[C@H](O)[C@H](O[C@]4(C(=O)O)C[C@H](O)[C@@H](NC(C)=O)[C@H]([C@H](O)[C@H](O)CO)O4)[C@H]3O)[C@H](O)[C@H]2O)nn1` [nGL 5], the “Binding of nGL liposomes relative to liposomes formulated with 3 mol% nGL 5 (Fig. 3g)” value on R122A Siglec-6 CHO cells (R122A Siglec-6 CHO cells, 3 mol% nGL) is 1.02 and 1.01 and 0.97.

GD1b: the “log10(MFI AF647) of GLL relative to log10(MFI AF647) of the same GLL against UT CHO cells (Fig. 2a)” value at R122A Siglec-6 CHO cells was 0.2 and 0.17 (2×) and 0.16; in assay [1] it was -0.12 and -0.14 (3×); at Siglec-10 WT CHO cells it was 0.18 and 0.23 and 0.2 and 0.22; on Siglec-1 R116A CHO cells it was -0.26 (2×) and -0.25 and -0.21; at CD33 WT CHO cells it was -0.13 and -0.1 (2×) and -0.07.

GM1: the “log10(MFI AF647) of GLL relative to log10(MFI AF647) of the same GLL against UT CHO cells (Fig. 2a)” value on R122A Siglec-6 CHO cells was 0.91 and 0.89 and 0.86 and 0.85; in assay [1], -0.08 and -0.12 (2×) and -0.11; at Siglec-10 WT CHO cells it was 0.32 (2×) and 0.35 and 0.26; at Siglec-1 R116A CHO cells it was -0.21 and -0.24 and -0.22 and -0.2; at CD33 WT CHO cells, -0.29 and -0.27 and -0.21 and -0.16. The “GLL binding to Siglec-10 (in words)” value on Siglec-10 WT CHO cells is “novel interactions were observed”.

For GD3, the “log10(MFI AF647) of GLL relative to log10(MFI AF647) of the same GLL against UT CHO cells (Fig. 2a)” value is 0.78 (2×) and 0.7 and 0.79 on R122A Siglec-6 CHO cells; 0.02 and -0.02 and 0 and -0.01 in assay [1]; 0.33 (2×) and 0.31 (2×) on Siglec-10 WT CHO cells; -0.04 (2×) and -0.02 and 0.05 on Siglec-1 R116A CHO cells; -0.03 (2×) and -0.01 and 0 on CD33 WT CHO cells. For the same molecule, the “GLL binding to Siglec-10 (in words)” value at Siglec-10 WT CHO cells is on record as “novel interactions were observed”.

GM3: the “log10(MFI AF647) of GLL relative to log10(MFI AF647) of the same GLL against UT CHO cells (Fig. 2a)” value at R122A Siglec-6 CHO cells was -0.11 (2×) and -0.14 (2×); in assay [1], -0.11 (2×) and -0.12 (2×); on Siglec-10 WT CHO cells, -0.09 (2×) and -0.02 and -0.08; on Siglec-1 R116A CHO cells, -0.19 and -0.23 and -0.18 and -0.21; at CD33 WT CHO cells, -0.19 and -0.14 and -0.12 and -0.08.

As to GM2, the “log10(MFI AF647) of GLL relative to log10(MFI AF647) of the same GLL against UT CHO cells (Fig. 2a)” value is 0.01 at R122A Siglec-6 CHO cells; -0.02 (2×) and -0.04 and -0.03 in assay [1]; 0.23 and 0.24 and 0.22 and 0.18 on Siglec-10 WT CHO cells; -0.08 and -0.1 (2×) and -0.07 at Siglec-1 R116A CHO cells; -0.08 and -0.05 and -0.02 and 0 at CD33 WT CHO cells.

As to GM4, the “log10(MFI AF647) of GLL relative to log10(MFI AF647) of the same GLL against UT CHO cells (Fig. 2a)” value was 0 at R122A Siglec-6 CHO cells; -0.08 and -0.09 and -0.11 and -0.1 in assay [1]; 0.2 and 0.21 (3×) at Siglec-10 WT CHO cells; -0.09 and -0.12 and -0.06 and -0.1 on Siglec-1 R116A CHO cells; -0.13 and -0.11 and -0.09 and -0.02 at CD33 WT CHO cells.

GQ1b: the “log10(MFI AF647) of GLL relative to log10(MFI AF647) of the same GLL against UT CHO cells (Fig. 2a)” value on R122A Siglec-6 CHO cells is 0.46 and 0.48 and 0.4 and 0.42; in assay [1], -0.11 (2×) and -0.12 and -0.08; on Siglec-10 WT CHO cells, 0.23 and 0.24 and 0.22 and 0.21; at Siglec-1 R116A CHO cells it was -0.29 and -0.27 and -0.24 and -0.3; on CD33 WT CHO cells it was -0.12 (2×) and -0.14 and -0.09.

With GD1a, the “log10(MFI AF647) of GLL relative to log10(MFI AF647) of the same GLL against UT CHO cells (Fig. 2a)” value at R122A Siglec-6 CHO cells was 0.5 and 0.47 and 0.41 and 0.51; in assay [1], -0.02 and -0.07 and -0.06 and -0.05; on Siglec-10 WT CHO cells, 0.32 (2×) and 0.3 and 0.31; at Siglec-1 R116A CHO cells, -0.06 (2×) and -0.02 and -0.08; on CD33 WT CHO cells, -0.09 and -0.06 and -0.03 and 0.01.

In the case of GT1b, the “log10(MFI AF647) of GLL relative to log10(MFI AF647) of the same GLL against UT CHO cells (Fig. 2a)” value was 0.72 and 0.7 and 0.61 and 0.69 at R122A Siglec-6 CHO cells; -0.03 and -0.06 and -0.05 (2×) in assay [1]; 0.42 (2×) and 0.4 and 0.39 on Siglec-10 WT CHO cells; -0.14 (2×) and -0.15 and -0.1 on Siglec-1 R116A CHO cells; -0.09 and -0.1 and -0.08 and -0.06 on CD33 WT CHO cells.
